Test results taken from patent US20090304692A1, “TRIAZINE COMPOUNDS AS PI3 KINASE AND MTOR INHIBITORS” (Wyeth, priority 2008, published 2009).
pIC50: −log10 of the molar value. Where two headings read alike, the source gives them in different places. Each block holds one compound with its values, some of them ahead of it.

How the values were obtained:
[1] = tested on: human prostate PC3-mm2 tumor cell line; experiment: In vitro cell culture growth assay (MTS), PC3-mm2; type: cell-based; conditions: read-out: IC50 PC3-mm2
[2] = tested on: human breast MDA-MB-361 tumor cell line; experiment: In vitro cell culture growth assay (MTS), MDA-MB-361; type: cell-based; conditions: read-out: IC50 MDA-MB-361
[3] = target: PI3K-γ (Homo sapiens, UniProt P48736); experiment: PI3K-gamma fluorescence polarization assay; conditions: read-out: IC50 PI3Kγ
PI3K-γ, sequence (P48736 whole entry, species assumed): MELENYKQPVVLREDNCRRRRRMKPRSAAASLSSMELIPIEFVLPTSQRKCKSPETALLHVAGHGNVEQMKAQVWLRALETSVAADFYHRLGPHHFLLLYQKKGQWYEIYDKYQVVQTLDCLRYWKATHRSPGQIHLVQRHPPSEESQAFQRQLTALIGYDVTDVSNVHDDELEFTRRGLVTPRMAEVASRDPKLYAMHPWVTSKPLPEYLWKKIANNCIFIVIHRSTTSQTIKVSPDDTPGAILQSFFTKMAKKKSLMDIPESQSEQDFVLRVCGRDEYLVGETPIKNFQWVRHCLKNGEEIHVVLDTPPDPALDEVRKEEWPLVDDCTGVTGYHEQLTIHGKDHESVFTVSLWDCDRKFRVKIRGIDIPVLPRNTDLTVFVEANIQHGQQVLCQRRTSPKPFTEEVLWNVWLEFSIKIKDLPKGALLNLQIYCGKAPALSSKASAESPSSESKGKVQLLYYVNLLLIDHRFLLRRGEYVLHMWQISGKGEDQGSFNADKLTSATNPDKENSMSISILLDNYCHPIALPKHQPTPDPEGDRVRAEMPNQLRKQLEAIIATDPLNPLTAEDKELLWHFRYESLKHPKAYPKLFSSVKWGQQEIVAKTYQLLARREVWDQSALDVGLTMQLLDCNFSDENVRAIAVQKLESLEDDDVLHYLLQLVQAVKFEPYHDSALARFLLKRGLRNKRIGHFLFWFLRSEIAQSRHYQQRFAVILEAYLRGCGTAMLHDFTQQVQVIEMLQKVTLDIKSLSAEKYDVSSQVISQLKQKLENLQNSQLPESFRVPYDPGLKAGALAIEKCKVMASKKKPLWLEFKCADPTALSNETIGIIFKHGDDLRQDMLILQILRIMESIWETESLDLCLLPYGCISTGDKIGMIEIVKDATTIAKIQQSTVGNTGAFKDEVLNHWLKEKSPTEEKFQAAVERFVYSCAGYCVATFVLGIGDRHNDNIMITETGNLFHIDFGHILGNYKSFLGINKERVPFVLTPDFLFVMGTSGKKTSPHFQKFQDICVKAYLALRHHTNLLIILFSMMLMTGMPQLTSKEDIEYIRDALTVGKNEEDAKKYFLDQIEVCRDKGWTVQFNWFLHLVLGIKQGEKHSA

[4] = target: PI3K-α (Homo sapiens, UniProt P42336); experiment: PI3K-alpha fluorescence polarization assay; conditions: read-out: IC50 PI3Kα
PI3K-α, sequence (P42336 whole entry, species assumed): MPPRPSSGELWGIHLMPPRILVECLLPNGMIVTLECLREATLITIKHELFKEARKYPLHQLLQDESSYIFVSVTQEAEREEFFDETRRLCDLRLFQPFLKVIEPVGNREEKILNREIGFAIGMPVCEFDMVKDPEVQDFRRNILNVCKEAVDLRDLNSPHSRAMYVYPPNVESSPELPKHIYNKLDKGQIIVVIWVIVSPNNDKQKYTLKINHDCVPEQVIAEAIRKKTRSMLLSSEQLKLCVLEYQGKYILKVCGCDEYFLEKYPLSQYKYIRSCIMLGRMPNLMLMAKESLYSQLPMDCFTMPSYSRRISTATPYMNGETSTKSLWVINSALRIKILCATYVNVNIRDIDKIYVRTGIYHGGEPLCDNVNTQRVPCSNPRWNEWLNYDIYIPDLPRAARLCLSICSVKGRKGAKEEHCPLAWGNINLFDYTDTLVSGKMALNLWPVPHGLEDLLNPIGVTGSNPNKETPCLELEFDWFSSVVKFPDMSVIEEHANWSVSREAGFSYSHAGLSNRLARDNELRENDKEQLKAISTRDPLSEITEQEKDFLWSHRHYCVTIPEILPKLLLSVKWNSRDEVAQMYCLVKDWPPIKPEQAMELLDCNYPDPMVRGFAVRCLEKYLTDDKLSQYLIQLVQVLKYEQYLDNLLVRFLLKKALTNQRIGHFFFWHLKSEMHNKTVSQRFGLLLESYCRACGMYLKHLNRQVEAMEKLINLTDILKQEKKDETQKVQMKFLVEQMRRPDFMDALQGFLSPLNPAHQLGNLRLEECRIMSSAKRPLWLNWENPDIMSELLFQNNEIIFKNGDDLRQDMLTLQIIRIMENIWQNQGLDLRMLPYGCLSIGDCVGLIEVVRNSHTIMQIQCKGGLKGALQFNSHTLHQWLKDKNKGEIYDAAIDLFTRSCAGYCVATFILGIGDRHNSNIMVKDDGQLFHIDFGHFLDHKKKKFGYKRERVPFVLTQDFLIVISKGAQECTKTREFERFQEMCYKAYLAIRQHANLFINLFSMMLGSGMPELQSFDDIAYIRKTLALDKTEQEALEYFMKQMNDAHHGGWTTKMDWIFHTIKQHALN
PI3K-α, sequence (P27986 whole entry partner, species assumed): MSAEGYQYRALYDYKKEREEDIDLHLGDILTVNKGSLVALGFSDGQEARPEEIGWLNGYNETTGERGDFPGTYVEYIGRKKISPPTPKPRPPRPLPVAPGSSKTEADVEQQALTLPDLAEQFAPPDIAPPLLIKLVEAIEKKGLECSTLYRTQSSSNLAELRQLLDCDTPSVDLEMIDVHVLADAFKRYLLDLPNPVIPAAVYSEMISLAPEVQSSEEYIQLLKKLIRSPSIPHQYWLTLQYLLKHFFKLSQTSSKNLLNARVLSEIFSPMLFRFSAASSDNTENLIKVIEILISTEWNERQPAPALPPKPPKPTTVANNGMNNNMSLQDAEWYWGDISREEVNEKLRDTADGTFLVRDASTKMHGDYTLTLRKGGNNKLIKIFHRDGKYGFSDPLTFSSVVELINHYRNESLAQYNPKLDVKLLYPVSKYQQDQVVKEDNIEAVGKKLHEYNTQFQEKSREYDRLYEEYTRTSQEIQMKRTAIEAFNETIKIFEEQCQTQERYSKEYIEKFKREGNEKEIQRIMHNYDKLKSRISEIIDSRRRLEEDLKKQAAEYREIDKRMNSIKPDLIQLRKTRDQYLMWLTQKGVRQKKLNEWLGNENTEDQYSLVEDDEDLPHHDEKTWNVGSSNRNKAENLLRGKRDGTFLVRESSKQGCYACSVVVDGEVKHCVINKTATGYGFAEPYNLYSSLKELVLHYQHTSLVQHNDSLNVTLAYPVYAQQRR

[5] = target: Human mTOR (FLAG-TOR) (Homo sapiens, UniProt P42345); experiment: mTOR kinase assay (DELFIA format, purified enzyme); type: biochemical; conditions: read-out: IC50 mTOR
Human mTOR (FLAG-TOR), sequence (P42345 1360-2549 limits assumed): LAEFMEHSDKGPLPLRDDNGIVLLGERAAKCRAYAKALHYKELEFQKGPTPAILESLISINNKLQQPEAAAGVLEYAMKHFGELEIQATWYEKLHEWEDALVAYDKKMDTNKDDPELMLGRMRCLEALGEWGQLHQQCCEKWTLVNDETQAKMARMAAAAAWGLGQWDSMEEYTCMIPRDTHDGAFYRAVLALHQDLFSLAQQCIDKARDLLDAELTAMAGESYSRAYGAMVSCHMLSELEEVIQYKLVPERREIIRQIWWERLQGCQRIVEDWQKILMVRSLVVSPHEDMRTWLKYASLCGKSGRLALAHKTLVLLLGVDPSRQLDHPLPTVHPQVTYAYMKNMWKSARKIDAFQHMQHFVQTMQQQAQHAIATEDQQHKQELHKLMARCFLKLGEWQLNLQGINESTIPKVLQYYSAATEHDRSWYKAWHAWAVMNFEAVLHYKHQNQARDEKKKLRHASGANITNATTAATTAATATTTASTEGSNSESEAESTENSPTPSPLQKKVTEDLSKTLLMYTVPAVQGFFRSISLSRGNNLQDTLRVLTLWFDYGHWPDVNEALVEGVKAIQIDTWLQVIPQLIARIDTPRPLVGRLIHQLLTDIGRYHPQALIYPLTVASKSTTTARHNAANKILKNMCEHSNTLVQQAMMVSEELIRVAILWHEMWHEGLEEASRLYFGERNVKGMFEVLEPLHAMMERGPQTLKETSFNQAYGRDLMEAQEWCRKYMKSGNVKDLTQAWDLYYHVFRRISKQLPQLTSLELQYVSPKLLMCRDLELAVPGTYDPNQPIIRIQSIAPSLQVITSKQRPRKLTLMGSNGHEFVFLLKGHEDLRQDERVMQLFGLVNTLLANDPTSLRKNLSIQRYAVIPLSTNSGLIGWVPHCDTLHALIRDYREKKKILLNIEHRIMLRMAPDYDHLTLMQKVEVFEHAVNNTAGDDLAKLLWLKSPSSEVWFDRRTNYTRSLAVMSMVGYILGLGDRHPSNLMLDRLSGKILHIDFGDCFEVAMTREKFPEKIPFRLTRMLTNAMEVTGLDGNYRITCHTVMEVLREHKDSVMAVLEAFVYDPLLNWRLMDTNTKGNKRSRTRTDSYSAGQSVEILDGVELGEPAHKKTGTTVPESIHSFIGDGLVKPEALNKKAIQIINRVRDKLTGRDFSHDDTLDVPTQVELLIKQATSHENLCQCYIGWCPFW

[6] = MTS cell growth assay, three days after drug treatment
[7] = MTS cell growth assay, three days after drug treatment, PC3-mm2 cells
[8] = MTS cell growth assay, three days after drug treatment, MDA-MB-361 cells
[9] = Homo sapiens, PC3MM2, 72 h, MTS cell growth assay, three days after drug treatment
[10] = Homo sapiens, MDA-MB-361, 72 h, MTS cell growth assay, three days after drug treatment
[11] = Homo sapiens, PC3MM2, 72 h, MTS cell growth assay, three days after drug treatment, PC3-mm2 cells
[12] = Homo sapiens, 72 h, MTS cell growth assay, three days after drug treatment, MDA-MB-361 cells
[13] = Homo sapiens, PC3MM2, 72 h, PC3-mm2 cells, MTS, three days after drug treatment

Compound: 1-(4-(4,6-dimorpholino-1,3,5-triazin-2-yl)phenyl)-3-(4-(2-(pyridin-2-yl)acetyl)phenyl)urea [Example 78]
pIC50 [1, 6]: 7.51
pIC50 [2, 6]: 7.17
pIC50 [3]: 7.64

Compound: 1-(4-{[4-(1-methylethyl)piperazin-1-yl]carbonyl}phenyl)-3-[4-(4-morpholin-4-yl-6-piperidin-1-yl-1,3,5-triazin-2-yl)phenyl]urea [Example 595]
pIC50 [1, 7]: 6.71
pIC50 [2, 8]: 7.37
pIC50 [3]: 7.23

Compound: 1-(4-{[4-(dimethylamino)piperidin-1-yl]carbonyl}phenyl)-3-[4-(4-morpholin-4-yl-6-phenyl-1,3,5-triazin-2-yl)phenyl]urea [Example 544]
pIC50 [4]: 8.46
pIC50 [5]: 7.77
pIC50 [2, 8]: 7.24
pIC50 [3]: 7.69

pIC50 [1, 7]: 7.62
pIC50 [4]: 9.05
pIC50 [2, 8]: 8.40
pIC50 [3]: 8.19
Compound: 4-yl-6-(3-oxa-8-azabicyclo[3.2.1]oct-8-yl)-1,3,5-triazin-2-yl]phenyl}urea [Example 518]

Compound: 4-{[(4-{4,6-bis[(3S)-3-methylmorpholin-4-yl]-1,3,5-triazin-2-yl}phenyl)carbamoyl]amino}-N-(2-pyrrolidin-1-ylethyl)benzamide [Example 635]
pIC50 [1, 7]: 6.97
pIC50 [4]: 7.66
pIC50 [2, 8]: 7.59
pIC50 [3]: 6.42

Compound: 4-{[(4-{4-morpholin-4-yl-6-[(3S)-tetrahydrofuran-3-yloxy]-1,3,5-triazin-2-yl}phenyl)carbamoyl]amino}-N-(2-pyrrolidin-1-ylethyl)benzamide [Example 521]
pIC50 [1, 7]: 7.57
pIC50 [4]: 8.85
pIC50 [2, 8]: 8.10

pIC50 [1, 9]: 5.80
pIC50 [4]: 8.22
pIC50 [2, 10]: 7.60
pIC50 [3]: 7.14
Compound: C[C@H]1COCCN1c1nc(-c2ccc(NC(=O)Nc3ccc(CO)cc3)cc2)nc(N2CCOCC2)n1 [Example 91, 1-[4-(2-hydroxymethyl)phenyl]-3-(4-{4-[(3S)-3-methylmorpholin-4-yl]-6-morpholin-4-yl-1,3,5-triazin-2-yl}phenyl)urea]

pIC50 [1, 9]: 6.64
pIC50 [4]: 8.70
pIC50 [2, 10]: 6.73
pIC50 [3]: 6.70
Compound: CC(O)c1nc(-c2ccc(NC(=O)Nc3ccncc3)cc2)nc(N2CCOCC2)n1 (stereo not shown) [Example 223, 1-{4-[4-(1-hydroxyethyl)-6-morpholin-4-yl-1,3,5-triazin-2-yl]phenyl}-3-pyridin-4-ylurea]

Compound: CNCCN(C)C(=O)c1ccc(NC(=O)Nc2ccc(-c3nc(OC)nc(N4CCOCC4)n3)cc2)cc1 [Example 245, 4-({[4-(4-methoxy-6-morpholin-4-yl-1,3,5-triazin-2-yl)phenyl]carbamoyl}amino)-N-methyl-N-[2-(methylamino)ethyl]benzamide]
pIC50 ([1]; Homo sapiens, PC3MM2, 72 h): 6.43
pIC50 [4]: 9.00
pIC50 ([4]; listed as 722): 9.10
pIC50 ([2]; Homo sapiens, MDA-MB-361, 72 h): 6.96

Compound: COc1nc(-c2ccc(NC(=O)Nc3ccc(C(=O)N4CCN(C)CC4)cc3)cc2)nc(N2CCOCC2)n1 [Example 246, 1-[4-(4-methoxy-6-morpholin-4-yl-1,3,5-triazin-2-yl)phenyl]-3-{4-[(4-methylpiperazin-1-yl)carbonyl]phenyl}urea]
pIC50 ([1]; Homo sapiens, PC3MM2, 72 h): 7.04
pIC50 ([2]; Homo sapiens, MDA-MB-361, 72 h): 7.46

Compound: COc1nc(-c2ccc(NC(=O)Nc3ccc(C(=O)N4CCNC(C)(C)C4)cc3)cc2)nc(N2CCOCC2)n1 [Example 247, 1-{4-[(3,3-dimethylpiperazin-1-yl)carbonyl]phenyl}-3-[4-(4-methoxy-6-morpholin-4-yl-1,3,5-triazin-2-yl)phenyl]urea]
pIC50 ([1]; Homo sapiens, PC3MM2, 72 h): 6.95
pIC50 [4]: 8.70
pIC50 ([4]; listed as 724): 8.82
pIC50 ([2]; Homo sapiens, MDA-MB-361, 72 h): 7.52

Compound: COc1nc(-c2ccc(NC(=O)Nc3ccc(C(=O)NCCN4CCCCC4)cc3)cc2)nc(N2CCOCC2)n1 [Example 248, 4-({[4-(4-methoxy-6-morpholin-4-yl-1,3,5-triazin-2-yl)phenyl]carbamoyl}amino)-N-(2-piperidin-1-ylethyl)benzamide]
pIC50 ([1]; Homo sapiens, PC3MM2, 72 h): 7.16
pIC50 [4]: 8.70
pIC50 ([2]; Homo sapiens, MDA-MB-361, 72 h): > 7.51

pIC50 [1, 9]: 6.84
pIC50 [4]: 8.22
pIC50 [5]: 7.10
pIC50 [3]: 6.85
Compound: CCCCc1nc(-c2ccc(NC(=O)Nc3ccc(C(=O)Nc4ccc(OCCN(C)C)cc4)cc3)cc2)nc(N2CCOCC2)n1 [Example 269, 4-({[4-(4-butyl-6-morpholin-4-yl-1,3,5-triazin-2-yl)phenyl]carbamoyl}amino)-N-{4-[2-(dimethylamino)ethoxy]phenyl}benzamide]

pIC50 [1, 9]: 6.44
pIC50 [4]: 8.52
pIC50 [5]: 8.55
pIC50 [3]: 7.52
Compound: CC(C)c1nc(-c2ccc(NC(=O)Nc3ccc(C(=O)NC4CN(C)C4)cc3)cc2)nc(N2CCOCC2)n1 [Example 307, N-(1-methylazetidin-3-yl)-4-[({4-[4-(1-methylethyl)-6-morpholin-4-yl-1,3,5-triazin-2-yl]phenyl}carbamoyl)amino]benzamide]

pIC50 [1, 9]: 7.11
pIC50 [4]: 8.54
pIC50 [5]: 8.15
pIC50 [3]: 7.49
Compound: CC(C)Cc1nc(-c2ccc(NC(=O)Nc3ccc(C(=O)N4CCC(N(C)C)CC4)cc3)cc2)nc(N2CCOCC2)n1 [Example 323, 1-(4-{[4-(dimethylamino)piperidin-1-yl]carbonyl}phenyl)-3-{4-[4-(2-methylpropyl)-6-morpholin-4-yl-1,3,5-triazin-2-yl]phenyl}urea]

pIC50 [1, 11]: > 7.51
pIC50 [4]: 7.37
pIC50 ([4]; listed as 537): 7.36
pIC50 [2, 12]: > 7.51
pIC50 [3]: 7.05
Compound: O=C(Nc1ccncc1)Nc1ccc(-c2nc(-c3ccccc3)nc(N3CCOCC3)n2)cc1 [Example 346, 1-[4-(4-morpholin-4-yl-6-phenyl-1,3,5-triazin-2-yl)phenyl]-3-pyridin-4-ylurea]

pIC50 [4]: 9.40
pIC50 [5]: 8.96
pIC50 [2, 12]: 9.00
pIC50 [3]: 8.00
Compound: CN(C)CCN(C)C(=O)Nc1ccc(NC(=O)Nc2ccc(-c3nc(N4CCOCC4)nc(N4CCOCC4)n3)cc2)cc1 [Example 500, 1-[2-(dimethylamino)ethyl]-3-[4-({[4-(4,6-dimorpholin-4-yl-1,3,5-triazin-2-yl)phenyl]carbamoyl}amino)phenyl]-1-methylurea]

pIC50 [1, 11]: 7.90
pIC50 [4]: 9.30
pIC50 [2, 12]: 8.12
pIC50 [3]: 8.74
Compound: CCN1CCN(C(=O)Nc2ccc(NC(=O)Nc3ccc(-c4nc(N5CCOCC5)nc(N5CCOCC5)n4)cc3)cc2)CC1 [Example 503, N-[4-({[4-(4,6-dimorpholin-4-yl-1,3,5-triazin-2-yl)phenyl]carbamoyl}amino)phenyl]-4-ethylpiperazine-1-carboxamide]

pIC50 [1, 11]: 6.77
pIC50 [4]: 7.68
pIC50 ([2]; Homo sapiens, MDA-MB-361, 72 h, MTS cell growth assay, three days after drug treatment, MDA-MB-361 cells): 7.05
pIC50 [3]: 6.97
Compound: C[C@H]1COCCN1c1nc(-c2ccc(NC(=O)Nc3ccc(C(=O)N4CCCC4)cc3)cc2)nc(N2CCOC[C@@H]2C)n1 [Example 571, 1-(4-{4,6-bis[(3S)-3-methylmorpholin-4-yl]-1,3,5-triazin-2-yl}phenyl)-3-[4-(pyrrolidin-1-ylcarbonyl)phenyl]urea]

pIC50 [1, 11]: 7.25
pIC50 [4]: 9.05
pIC50 [2, 12]: 7.89
pIC50 [3]: 7.82
Compound: CN(C)CCNC(=O)c1ccc(NC(=O)Nc2ccc(-c3nc(N4CCCOCC4)nc(N4CCOCC4)n3)cc2)cc1 [Example 572, N-[2-(dimethylamino)ethyl]-4-[({4-[4-morpholin-4-yl-6-(1,4-oxazepan-4-yl)-1,3,5-triazin-2-yl]phenyl}carbamoyl)amino]benzamide]

Compound: O=C(Nc1ccc(C(=O)N2CCC(N3CCCCC3)CC2)cc1)Nc1ccc(-c2nc(N3CCOCC3)nc(N3C4CCC3COC4)n2)cc1 [Example 760, 1-[4-(1,4′-bipiperidin-1′-ylcarbonyl)phenyl]-3-{4-[4-morpholin-4-yl-6-(3-oxa-8-azabicyclo[3.2.1]oct-8-yl)-1,3,5-triazin-2-yl]phenyl}urea]
pIC50 [1, 11]: 8.40
pIC50 [4]: 8.37
pIC50 [5]: 9.68
pIC50 [3]: 7.55

pIC50 [1, 13]: 7.43
pIC50 ([2]; Homo sapiens, 72 h, MDA-MB-361 cells, MTS, three days after drug treatment): 7.46
Compound: O=C(Nc1ccncc1)Nc1ccc(-c2nc(N3CCOCC3)nc(N3CC4CCC3CO4)n2)cc1 (stereo not shown) [Example 807, 1-{4-[4-morpholin-4-yl-6-(2-oxa-5-azabicyclo[2.2.2]oct-5-yl)-1,3,5-triazin-2-yl]phenyl}-3-pyridin-4-ylurea]

Compound: CN1CCN(C(=O)c2ccc(NC(=O)Nc3ccc(-c4nc(N5CCOCC5)[nH]c(=O)n4)cc3)cc2)CC1 [Example 826, 1-{4-[(4-methylpiperazin-1-yl)carbonyl]phenyl}-3-[4-(6-morpholin-4-yl-4-oxo-4,5-dihydro-1,3,5-triazin-2-yl)phenyl]urea]
pIC50 [1, 13]: < 6.00
pIC50 [4]: 7.82
pIC50 ([2]; Homo sapiens, MDA-MB-361, 72 h): < 6.00

Compound: N-[2-(dimethylamino)ethyl]-4-({[4-(4-morpholin-4-yl-6-piperidin-1-yl-1,3,5-triazin-2-yl)phenyl]carbamoyl}amino)benzamide [Example 601]
pIC50 [1, 7]: 6.81
pIC50 [4]: 8.46
pIC50 [5]: 8.52
pIC50 [3]: 7.24
